System: leukocyte migration (chemotaxis) stimulated by f-MLP
Assay: leukocyte chemotaxis assay: leukocyte migration stimulated by f-MLP
Details: concentration not given

cyclosporin H
activity in studies involving leukocyte chemotaxis induced by f-MLP (result in words): functionally active
activity in studies involving leukocyte chemotaxis induced by f-MLP (result in words) (listed as purified cyclosporin H): active
